In patent publication US11564912B2, “Methods for treating irritable bowel syndrome (IBS)” (Salix Pharmaceuticals, Inc., priority 2008, dated 2023):
Where “and” joins values, the source holds several entries; their conditions need not be identical. Equal values may be shown once.

How the values were obtained:
[1] = system: subjects with dIBS; assay: Study of rifaximin BID in subjects with dIBS: adequate relief of IBS symptoms and bloating; assay type: in vivo, human; details: for Percentage of Subjects with Adequate Relief of Bloating Symptom / Percentage of Subjects with Adequate Relief of IBS Symptoms: RFX 550 mg BID 14 days, N = 191, ITT, at least two of the final three weeks of treatment phase (Weeks 1 to 4); for Adequate Relief of Bloating, Post Treatment: Failures / Adequate Relief of Bloating, Post Treatment: Success / Adequate Relief of Bloating, Post Treatment: Failure: RFX 550 2 w (N = 54); for Patients with adequate relief of bloating / Patients with adequate relief of global IBS symptoms: rifaximin 550 mg twice daily 14 days
Description: This example relates to a study of rifaximin in subjects with dIBS. […] There were two measures of efficacy assessed. Subjects were questioned on the relief of overall IBS symptoms and bloating. […] The analyses defined success as a “yes” response to questions regarding adequate relief.
All subpopulations in the study responded to therapy. Baseline severity was determined using 7-point Lickert scales during screening for Abdominal Pain/Discomfort and Bloating, and the number, type (normal, hard, loose) and urgency of bowel movements.
Duration of effect was assessed in a follow-up period. Subjects that responded in the 4 week treatment period were followed for an additional 3 months.
The effect of treatment on the percentage of subjects who reported adequate relief of IBS and bloating symptoms for at least two of the final three weeks during the treatment phase (Weeks 1 to 4) is shown in Tables 3-5 and FIGS. 4-6 below.
Two measures of efficacy were assessed independently. The first was the proportion of subjects who provided a ‘yes’ response to the weekly SGA question: “In the past 7 days, have you had adequate relief of your IBS symptoms? (yes/no)”. The second endpoint was the proportion of subjects who provide a ‘yes’ response to the weekly individual symptom question: “In the past 7 days, have you had adequate relief of your symptom of bloating? (yes/no)”. Durability was based on the proportion of subjects that had adequate relief over the entire treatment phase.
It is reported herein that the severity of baseline symptoms of abdominal pain and bloating influenced the response to rifaximin treatment. The co-primary endpoints in this analysis assessed weekly yes/no responses to questions regarding adequate relief of global IBS symptoms and IBS-associated bloating. Severity of baseline IBS symptoms was evaluated as a potential confounder of clinical response and was categorized as mild/moderate or severe based on a mean score of ≤4 vs. >4 (on a 7-point scale) for bloating and abdominal pain.
The Weekly yes/no responses to questions regarding adequate relief of global IBS symptoms and IBS-associated bloating were assessed. Clinical response was defined as adequate relief for 2 of the final 3 treatment weeks (wk 2, 3, or 4). Severity of baseline IBS symptoms was evaluated as a potential confounder of clinical response and was categorized as mild/moderate or severe based on a mean score of ≤4 versus >4 (on a 7-point scale (0=not bothersome; 6=very bothersome)) for bloating and abdominal pain.

[2] = Rifaximin exposure in subjects having IBS; assay type: in vivo, human
[3] = RFX 550 mg BID vs placebo, ITT, listed as RFX
[4] = RFX 550 mg BID, responders followed through week 16
[5] = patients with mild/moderate abdominal pain at baseline
[6] = patients with mild/moderate bloating at baseline

Substance: (2S,16Z,18E,20S,21S,22R, 23R,24R,25S,26S,27S,28E)-5,6,21,23,25 Pentahydroxy-27-methoxy -2,4,11,16,20,22,24,26-octamethyl-2,7-(epoxypentadeca-(1,11,13)trienimino)benzofuro (4,5-e) pyrido(1,2,-a) benzimidazole-1,15(2H)-dione,25-acetate [Rifaximin]
- Adequate Relief of IBS Symptoms at the End of the Treatment Phase: Success ([1]; Male, RFX 550 2 w (N = 191)): 29 (53.7%) n (%)
- odds ratio, Adequate Relief of Bloating at the End of the Treatment Phase ([1]; Male, RFX 550 2 w vs. PBO): Comparison of RFX 550 2 w vs. PBO p-value: 0.0802, odds ratio: 2.148 (0.912, 5.057)
- odds ratio, Adequate Relief of IBS Symptoms at the End of the Treatment Phase ([1]; Male, RFX 550 2 w vs. PBO): Comparison of RFX 550 2 w vs. PBO p-value: 0.0326, odds ratio: 2.511 (1.079, 5.842)
- Adequate Relief of Bloating at the End of the Treatment Phase: Failure ([1]; Male, RFX 550 4 w (N = 98)): 16 (72.7%) n (%)
- Adequate Relief of Bloating at the End of the Treatment Phase: Success ([1]; Male, RFX 550 4 w (N = 98)): 6 (27.3%) n (%)
- Adequate Relief of IBS Symptoms at the End of the Treatment Phase: Failure ([1]; Male, RFX 550 4 w (N = 98)): 15 (68.2%) n (%)
- Adequate Relief of IBS Symptoms at the End of the Treatment Phase: Success ([1]; Male, RFX 550 4 w (N = 98)): 7 (31.8%) n (%)
- Percentage of Subjects with Adequate Relief of Bloating Symptom [1]: 46%
- Percentage of Subjects with Adequate Relief of IBS Symptoms [1]: 52%
- Percentage of Subjects with Adequate Relief of Bloating Symptom ([1]; listed as RFX): 46.1%
- Percentage of Subjects with Adequate Relief of IBS Symptoms ([1]; listed as RFX): 52.4%
- Odds Ratio Estimate, Number of Weeks with Adequate Relief of Bloating Symptoms ([1]; RFX 550 mg BID vs placebo, ITT): 1.57
- Odds Ratio Estimate, Number of Weeks with Adequate Relief of IBS Symptoms ([1]; RFX 550 mg BID vs placebo, ITT): 1.54
- Odds Ratio Estimate, Adequate Relief of Bloating Symptom [1, 3]: 1.6 and 1.58
- Odds Ratio Estimate, Adequate Relief of IBS Symptoms [1, 3]: 1.6
- Adequate relief of IBS symptoms during post-treatment follow-up [1, 4]: 62.3%
- Adequate relief of the symptom of bloating during post-treatment follow-up [1, 4]: 59.3%
- Adequate Relief of Bloating, Post Treatment: Failures ([1]; Week 6): 5 (9.3%) n (%)
- Adequate Relief of Bloating, Post Treatment: Success ([1]; Week 6): 49 (90.7%) n (%)
- odds ratio, Adequate Relief of Bloating, Post Treatment ([1]; Week 6, RFX 550 2 w vs. PBO): Comparison of RFX 550 2 w vs. PBO p-value: 0.1303, odds ratio: 3.840
- Adequate Relief of Bloating, Post Treatment: Failures ([1]; Week 7): 9 (16.7%) n (%)
- Adequate Relief of Bloating, Post Treatment: Success ([1]; Week 7): 45 (83.3%) n (%)
- odds ratio, Adequate Relief of Bloating, Post Treatment ([1]; Week 7, RFX 550 2 w vs. PBO): Comparison of RFX 550 2 w vs. PBO p-value: 0.1311, odds ratio: 2.931
- Adequate Relief of Bloating, Post Treatment: Failures ([1]; Week 8): 7 (13.0%) n (%)
- Adequate Relief of Bloating, Post Treatment: Success ([1]; Week 8): 47 (87.0%) n (%)
- odds ratio, Adequate Relief of Bloating, Post Treatment ([1]; Week 8, RFX 550 2 w vs. PBO): Comparison of RFX 550 2 w vs. PBO p-value: 0.2858, odds ratio: 2.107
- Adequate Relief of Bloating, Post Treatment: Failures ([1]; Week 9): 15 (27.8%) n (%)
- Adequate Relief of Bloating, Post Treatment: Success ([1]; Week 9): 39 (72.2%) n (%)
- odds ratio, Adequate Relief of Bloating, Post Treatment ([1]; Week 9, RFX 550 2 w vs. PBO): Comparison of RFX 550 2 w vs. PBO p-value: 0.0814, odds ratio: 2.737
- Adequate Relief of Bloating, Post Treatment: Failures ([1]; Week 10): 15 (27.8%) n (%)
- Adequate Relief of Bloating, Post Treatment: Success ([1]; Week 10): 39 (72.2%) n (%)
- odds ratio, Adequate Relief of Bloating, Post Treatment ([1]; Week 10, RFX 550 2 w vs. PBO): Comparison of RFX 550 2 w vs. PBO p-value: 0.0217, odds ratio: 3.828
- Adequate Relief of Bloating, Post Treatment: Failures ([1]; Week 11): 19 (35.2%) n (%)
- Adequate Relief of Bloating, Post Treatment: Success ([1]; Week 11): 35 (64.8%) n (%)
- odds ratio, Adequate Relief of Bloating, Post Treatment ([1]; Week 11, RFX 550 2 w vs. PBO): Comparison of RFX 550 2 w vs. PBO p-value: 0.0398, odds ratio: 3.115
- Adequate Relief of Bloating, Post Treatment: Failure ([1]; Week 12): 18 (33.3%) n (%)
- Adequate Relief of Bloating, Post Treatment: Success ([1]; Week 12): 36 (66.7%) n (%)
- odds ratio, Adequate Relief of Bloating, Post Treatment ([1]; Week 12, RFX 550 2 w vs. PBO): Comparison of RFX 550 2 w vs. PBO p-value: 0.0596, odds ratio: 2.891
- Adequate Relief of Bloating, Post Treatment: Failure ([1]; Week 13): 21 (38.9%) n (%)
- Adequate Relief of Bloating, Post Treatment: Success ([1]; Week 13): 33 (61.1%) n (%)
- odds ratio, Adequate Relief of Bloating, Post Treatment ([1]; Week 13, RFX 550 2 w vs. PBO): Comparison of RFX 550 2 w vs. PBO p-value: 0.0142, odds ratio: 4.187
- Adequate Relief of Bloating, Post Treatment: Failure ([1]; Week 14): 20 (37.0%) n (%)
- Adequate Relief of Bloating, Post Treatment: Success ([1]; Week 14): 34 (63.0%) n (%)
- odds ratio, Adequate Relief of Bloating, Post Treatment ([1]; Week 14, RFX 550 2 w vs. PBO): Comparison of RFX 550 2 w vs. PBO p-value: 0.0121, odds ratio: 4.230
- Adequate Relief of Bloating, Post Treatment: Failure ([1]; Week 15): 23 (42.6%) n (%)
- Adequate Relief of Bloating, Post Treatment: Success ([1]; Week 15): 31 (57.4%) n (%)
- odds ratio, Adequate Relief of Bloating, Post Treatment ([1]; Week 15, RFX 550 2 w vs. PBO): Comparison of RFX 550 2 w vs. PBO p-value: 0.0391, odds ratio: 3.323
- Adequate Relief of Bloating, Post Treatment: Failure ([1]; Week 16): 22 (40.7%) n (%)
- Adequate Relief of Bloating, Post Treatment: Success ([1]; Week 16): 32 (59.3%) n (%)
- odds ratio, Adequate Relief of Bloating, Post Treatment ([1]; Week 16, RFX 550 2 w vs. PBO): Comparison of RFX 550 2 w vs. PBO p-value: 0.0212, odds ratio: 3.700
- Treatment effect (Bloating) ([1]; dIBS Type: aIBS): 31.4%*, 31.4%
- Treatment effect (IBS Sx) ([1]; dIBS Type: aIBS): 31.4%*, 31.4%
- Treatment effect (Bloating) ([1]; dIBS Type: dIBS only): 4.5%
- Treatment effect (IBS Sx) ([1]; dIBS Type: dIBS only): 6.3%
- Patients with adequate relief of bloating [1, 5]: 44%
- Patients with adequate relief of global IBS symptoms [1, 5]: 50%
- Patients with adequate relief of bloating [1, 6]: 47%
- Patients with adequate relief of global IBS symptoms [1, 6]: 56%
- Rifaximin exposure, fold lower than neomycin exposure [2]: more than 66 fold
- Rifaximin exposure, fold lower than rifampin exposure [2]: more than 520 fold
